# Data reported in ChEMBL document CHEMBL5550220, “Discovering New Metallo-Deubiquitinase CSN5 Inhibitors by a Non-Catalytic Activity Assay Platform” (J Med Chem, 2024).
# pIC50: −log10 of the molar value. Active and inactive are the calls of the source. No cut-off for these calls is given here.
# Tests used:
# [1] = target: T1, COP9 signalosome complex subunit 5 (Homo sapiens, UniProt Q92905); experiment: (§1) Inhibition of N-terminal His6-tagged CSN5 (2 to 257 residues) (unknown origin) transfected in Transetta cells preincubated for 20 mins followed by N-(2-(3-(3',6'-dihydroxy-3-oxo-3H-spiro[isobenzofuran-1,9'-xanthen]-5-yl)thioureido)ethyl)-3-(2-(5-methyl-[1,1'-biphenyl]-2-yl)-1H-pyrrolo[2,3-b]pyridin-3-yl)propanamide probe addition and measured after 1 hr by fluorescence polarization assay
# Target sequence in this assay (Q92905 whole entry, the tested form may be a part, one chain of several): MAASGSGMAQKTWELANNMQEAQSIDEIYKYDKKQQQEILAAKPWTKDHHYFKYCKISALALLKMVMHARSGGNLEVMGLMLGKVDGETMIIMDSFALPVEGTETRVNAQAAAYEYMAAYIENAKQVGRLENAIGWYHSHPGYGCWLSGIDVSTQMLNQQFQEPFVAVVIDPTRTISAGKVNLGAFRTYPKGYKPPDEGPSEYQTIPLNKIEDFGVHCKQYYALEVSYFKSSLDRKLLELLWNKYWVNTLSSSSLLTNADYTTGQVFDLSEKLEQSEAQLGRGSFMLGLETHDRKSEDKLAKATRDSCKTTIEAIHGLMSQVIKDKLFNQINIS
# HCT-116 [2] = experiment: Antiproliferative activity against human HCT-116 cells assessed as inhibition of cell proliferation measured after 3 days by MTT assay; type: functional, cell-based; settings: HCT-116, 72 h
# A-375 = experiment: Antiproliferative activity against human A-375 cells assessed as inhibition of cell proliferation measured after 3 days by MTT assay; type: functional, cell-based; settings: A-375, 72 h
# HepG2 [3] = experiment: Antiproliferative activity against human HepG2 cells assessed as inhibition of cell proliferation measured after 3 days by MTT assay; type: functional, cell-based; settings: HepG2, 72 h
# [4] = target: T1, COP9 signalosome complex subunit 5; experiment: as §1, with “based microplate reader” for “polarization”; type: cell-based
# Target sequence in this assay (Q92905 whole entry, the tested form may be a part, one chain of several): as above
# HCT-116 [5] = experiment: Effect on CSN5 protein level in human HCT-116 cells at 3 uM by Western blot analysis; type: functional, cell-based
# [6] = target: T1, COP9 signalosome complex subunit 5; experiment: Binding affinity to N-terminal His6-tagged CSN5 (2 to 257 residues) (unknown origin) transfected in Transetta cells assessed as decrease in tryptophan fluorescence intensity incubated for 10 mins by fluorescence quenching based microplate reader analysis; type: cell-based; settings: dose 0-100 µM
# Target sequence in this assay (Q92905 2-334 limits assumed, one chain of several): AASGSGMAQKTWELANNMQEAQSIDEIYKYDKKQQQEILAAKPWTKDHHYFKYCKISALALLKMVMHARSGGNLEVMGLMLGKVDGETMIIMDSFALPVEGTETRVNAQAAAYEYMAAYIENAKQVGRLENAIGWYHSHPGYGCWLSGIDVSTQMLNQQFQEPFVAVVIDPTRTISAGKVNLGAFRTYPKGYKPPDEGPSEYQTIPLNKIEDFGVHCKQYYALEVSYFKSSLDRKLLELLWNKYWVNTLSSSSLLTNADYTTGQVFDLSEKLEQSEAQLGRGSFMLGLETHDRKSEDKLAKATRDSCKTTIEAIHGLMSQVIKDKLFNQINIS
# HCT-116 [7] = experiment: Upregulation of PD-L1 level in human HCT-116 cells at 3 uM by Western blot analysis; type: functional, cell-based
# [8] = target: T1, COP9 signalosome complex subunit 5; experiment: Inhibition of CSN5 in human HepG2 cells assessed as increase in neddylation of cullin1 at 3 uM by Western blot analysis; type: cell-based
# Target sequence in this assay (Q92905 2-334 limits assumed, one chain of several): as above
# [9] = target: T1, COP9 signalosome complex subunit 5; experiment: Inhibition of N-terminal His6-tagged CSN5 (2 to 257 residues) (unknown origin) transfected in Transetta cells preincubated with N-(2-(3-(3',6'-dihydroxy-3-oxo-3H-spiro[isobenzofuran-1,9'-xanthen]-5-yl)thioureido)ethyl)-3-(2-(5-methyl-[1,1'-biphenyl]-2-yl)-1H-pyrrolo[2,3-b]pyridin-3-yl)propanamide probe followed by compound addition by fluorescence based microplate reader assay; type: cell-based
# Target sequence in this assay (Q92905 2-334 limits assumed, one chain of several): as above
# [10] = target: T1, COP9 signalosome complex subunit 5; experiment: Binding affinity to N-terminal His6-tagged Zn-II deficient CSN5 (2 to 257 residues) (unknown origin) transfected in Transetta cells assessed as tryptophan fluorescence change at 0 to 100 uM incubated for 10 mins by fluorescence quenching based microplate reader analysis; type: cell-based; settings: dose 0-100 µM
# Target sequence in this assay (Q92905 2-334 limits assumed, one chain of several): as above
# [11] = target: T1, COP9 signalosome complex subunit 5; experiment: Inhibition of CSN5 in human HCT-116 cells assessed as increase in neddylation of cullin1 at 3 uM by Western blot analysis; type: cell-based
# Target sequence in this assay (Q92905 2-334 limits assumed, one chain of several): as above
# HepG2 [12] = experiment: Effect on CSN5 protein level in human HepG2 cells at 3 uM by Western blot analysis; type: functional, cell-based
# [13] = target: T1, COP9 signalosome complex subunit 5; settings: dose 50.0 µM
# Target sequence in this assay (Q92905 2-334 limits assumed, one chain of several): as above
# Description: Thermal stabilization of N-terminal His6-tagged CSN5 (2 to 257 residues) (unknown origin) transfected in Transetta cells assessed as change in melting temperature at 50 uM by SYPRO orange dye based thermal shift assay
# [14] = target: T1, COP9 signalosome complex subunit 5; experiment: Inhibition of CSN5 in human HepG2 cells assessed as increase in neddylation of cullin1 by Western blot analysis; type: cell-based; settings: dose 0.3-3 µM
# HepG2 [15] = experiment: Effect on PD-L1 level in human HepG2 cells at 0.3 to 3 uM by Western blot analysis; type: functional, cell-based; settings: dose 0.3-3 µM
# MDA-MB-231 [16] = experiment: Antiproliferative activity against human MDA-MB-231 cells assessed as inhibition of cell proliferation measured after 3 days by MTT assay; type: functional, cell-based; settings: MDA-MB-231, 72 h
# HCT-116 [17] = experiment: Upregulation of PD-L1 level in human HCT-116 cells at 30 uM by Western blot analysis; type: functional, cell-based
# HCT-116 [18] = experiment: Upregulation of PD-L1 protein expression in human HCT-116 cells at 30 uM by Western blot analysis; type: functional, cell-based
# [19] = target: T1, COP9 signalosome complex subunit 5; experiment: Inhibition of CSN5 in human HCT-116 cells assessed as increase in NEDD8-Cul1 level by Western blot analysis; type: cell-based; settings: dose 3-30 µM
# [20] = target: T1, COP9 signalosome complex subunit 5; experiment: Inhibition of CSN5 in human MDA-MB-231 cells assessed as increase in NEDD8-Cul1 level by Western blot analysis; type: cell-based; settings: dose 3-30 µM
# HCT-116 [21] = experiment: Downregulation of PD-L1 protein expression in human HCT-116 cells at 30 uM by Western blot analysis; type: functional, cell-based
# MDA-MB-231 [22] = experiment: Downregulation of PD-L1 protein expression in human MDA-MB-231 cells at 3 to 30 uM by Western blot analysis; type: functional, cell-based; settings: dose 3-30 µM
Structure (SMILES),pIC50 [1],pIC50 (HCT-116 [2]),pIC50 (A-375),pIC50 (HepG2 [3]),pIC50 [4],pIC50 (MDA-MB-231 [16]),other results
O=C1C=CC(=O)c2c(O)ccc(O)c21 [NAPHTHAZALIN],6.77,5.98,5.05,5.30,6.04,,
CC(C)=CC[C@@H](O)C1=CC(=O)c2c(O)ccc(O)c2C1=O [SHIKONIN],6.72,6.28,6.15,5.53,6.39,,Activity (HCT-116 [5]): inactive; Activity [6]: Dose-Dependent Effect; Activity (HCT-116 [7]): Active; inhibition [8]: Active; inhibition [9]: Active; Activity [10]: inactive; inhibition [11]: Active; Activity (HepG2 [12]): inactive; ΔTm [13]: 1 °C; inhibition [14]: Dose-Dependent Effect; Activity (HepG2 [15]): inactive
Nc1nc(C(=O)O)c(CCc2ccc(Br)cc2)s1,4.18,4.26,,< 4.00,4.19,4.47,
CC(C)c1ccc(Cc2sc(N)nc2C(=O)O)cc1,3.96,,,,4.10,,
Nc1nc(C(=O)O)c(CCc2ccc(Cl)cc2Cl)s1,4.38,4.25,,< 4.00,4.38,< 4.00,
Cc1ccc(-c2[nH]c3ncccc3c2CCC(=O)N2CCOC[C@H]2c2nc3ccccc3[nH]2)c(-c2ccccc2)c1,,,,,,,Activity (HCT-116 [17]): Active; Activity (HCT-116 [18]): Active
CCCCc1sc(N)nc1C(=O)O,< 3.52,,,,< 3.52,,
Cc1ccc(CCc2sc(N)nc2C(=O)O)o1,3.73,,,,3.79,,
CC(C)c1ccc(CC(C)c2sc(N)nc2C(=O)O)cc1 (stereo unspecified),4.87,4.79,,4.43,4.83,4.85,Activity [6]: Dose-Dependent Effect
CC(C)=CC[C@H](O)C1=CC(=O)c2c(O)ccc(O)c2C1=O [ALKANNIN],6.57,6.08,5.85,5.31,6.10,,ΔTm [13]: 1 °C
CC(Cc1ccc(C(C)(C)C)cc1)c1sc(N)nc1C(=O)O (stereo unspecified),4.90,4.62,,4.41,4.72,4.64,Activity [6]: Dose-Dependent Effect; inhibition [9]: Active; inhibition [19]: Dose-Dependent Effect; inhibition [20]: Dose-Dependent Effect
CC(C)=CCCC1=CC(=O)c2c(O)ccc(O)c2C1=O [DEOXYSHIKONIN],5.60,4.81,5.17,4.98,5.32,,Activity (HCT-116 [5]): inactive; Activity [6]: Dose-Dependent Effect; Activity (HCT-116 [7]): inactive; inhibition [8]: Active; inhibition [11]: Active; Activity (HepG2 [12]): inactive
CC(C)=CC[C@@H](OC(=O)C(C)C)C1=CC(=O)c2c(O)ccc(O)c2C1=O [ISOBUTYLSHIKONIN],6.22,5.76,5.77,5.06,5.93,,
Nc1nc(C(=O)O)c(CCc2cccc3ccccc23)s1,4.52,4.75,,4.51,4.55,4.65,
CC(C)Cc1sc(N)nc1C(=O)O,< 3.52,,,,< 3.52,,
COc1ccc2cc([C@@H](C)c3sc(N)nc3C(=O)O)ccc2c1,4.57,4.39,,4.28,4.77,4.17,Activity [6]: Dose-Dependent Effect; inhibition [9]: Active; inhibition [19]: Dose-Dependent Effect; Activity (HCT-116 [21]): Active; Activity (MDA-MB-231 [22]): Active; inhibition [20]: Dose-Dependent Effect
CC(=O)O[C@H](CC=C(C)C)C1=CC(=O)c2c(O)ccc(O)c2C1=O [ACETYLSHIKONIN],6.37,5.45,5.72,5.19,5.97,,
CC(C)(C)c1ccc(CCc2sc(N)nc2C(=O)O)cc1,4.72,4.28,,< 4.00,4.53,4.28,
CC(C)(C)c1ccc(Cc2sc(N)nc2C(=O)O)cc1,4.04,,,,4.08,,
